# According to ChEMBL document CHEMBL4346657, “Anticancer activity, dual prooxidant/antioxidant effect and apoptosis induction profile of new bichalcophene-5-carboxamidines” (Eur J Med Chem, 2019):
# pIC50: −log10 of the molar value. The source made the active and inactive calls. The calls are words filed in the database; no cut-off is given here.
# How the values were obtained:
# WI-38 = assay: Cytotoxicity activity against human WI38 cells assessed as reduction in cell viability measured after 48 hrs by MTT assay; type: cell-based; settings: WI-38, 48 h
# MDA-MB-231 = assay: Antiproliferative activity against human MDA-MB-231/ATCC cells assessed as growth inhibition after 48 hrs by sulforhodamine B assay; type: functional; settings: MDA-MB-231, 48 h
# OVCAR-3 = assay: Antiproliferative activity against human OVCAR3 cells assessed as growth inhibition after 48 hrs by sulforhodamine B assay; type: functional; settings: OVCAR-3, 48 h
# MCF7 = assay: Antiproliferative activity against human MCF7 cells assessed as growth inhibition after 48 hrs by sulforhodamine B assay; type: functional; settings: MCF7, 48 h
# [1] = test system: Panel NCI-60 (60 carcinoma cell lines); assay: Antiproliferative activity against human NCI60 cells assessed as growth inhibition at 10 uM after 48 hrs by sulforhodamine B assay; type: functional; settings: read-out: GI
# DU-145 = assay: Antiproliferative activity against human DU145 cells assessed as growth inhibition after 48 hrs by sulforhodamine B assay; type: functional; settings: DU-145, 48 h
# SN12C = assay: Antiproliferative activity against human SN12C cells assessed as growth inhibition after 48 hrs by sulforhodamine B assay; type: functional
# RXF 393 = assay: Antiproliferative activity against human RXF393 cells assessed as growth inhibition after 48 hrs by sulforhodamine B assay; type: functional; settings: RXF 393, 48 h
# CAKI-1 = assay: Antiproliferative activity against human CAKI-1 cells assessed as growth inhibition after 48 hrs by sulforhodamine B assay; type: functional; settings: CAKI-1, 48 h
# SK-OV-3 = assay: Antiproliferative activity against human SKOV3 cells assessed as growth inhibition after 48 hrs by sulforhodamine B assay; type: functional; settings: SK-OV-3, 48 h
# OVCAR-5 = assay: Antiproliferative activity against human OVCAR5 cells assessed as growth inhibition after 48 hrs by sulforhodamine B assay; type: functional; settings: OVCAR-5, 48 h
# UACC-62 = assay: Antiproliferative activity against human UACC62 cells assessed as growth inhibition after 48 hrs by sulforhodamine B assay; type: functional; settings: UACC-62, 48 h
# UACC-257 = assay: Antiproliferative activity against human UACC257 cells assessed as growth inhibition after 48 hrs by sulforhodamine B assay; type: functional; settings: UACC-257, 48 h
# SK-MEL-2 = assay: Antiproliferative activity against human SK-MEL-2 cells assessed as growth inhibition after 48 hrs by sulforhodamine B assay; type: functional; settings: SK-MEL-2, 48 h
# M14 = assay: Antiproliferative activity against human M14 cells assessed as growth inhibition after 48 hrs by sulforhodamine B assay; type: functional; settings: M14, 48 h
# Malme-3M = assay: Antiproliferative activity against human MALME-3M cells assessed as growth inhibition after 48 hrs by sulforhodamine B assay; type: functional
# LOX IMVI = assay: Antiproliferative activity against human LOXIMVI cells assessed as growth inhibition after 48 hrs by sulforhodamine B assay; type: functional
# SNB-75 = assay: Antiproliferative activity against human SNB75 cells assessed as growth inhibition after 48 hrs by sulforhodamine B assay; type: functional; settings: SNB-75, 48 h
# SNB-19 = assay: Antiproliferative activity against human SNB19 cells assessed as growth inhibition after 48 hrs by sulforhodamine B assay; type: functional; settings: SNB-19, 48 h
# SF-539 = assay: Antiproliferative activity against human SF539 cells assessed as growth inhibition after 48 hrs by sulforhodamine B assay; type: functional; settings: SF-539, 48 h
# SF-268 = assay: Antiproliferative activity against human SF268 cells assessed as growth inhibition after 48 hrs by sulforhodamine B assay; type: functional; settings: SF-268, 48 h
# NCI-H460 = assay: Antiproliferative activity against human NCI-H460 cells assessed as growth inhibition after 48 hrs by sulforhodamine B assay; type: functional; settings: NCI-H460, 48 h
# NCI-H23 = assay: Antiproliferative activity against human NCI-H23 cells assessed as growth inhibition after 48 hrs by sulforhodamine B assay; type: functional; settings: NCI-H23, 48 h
# HOP-62 = assay: Antiproliferative activity against human HOP62 cells assessed as growth inhibition after 48 hrs by sulforhodamine B assay; type: functional; settings: HOP-62, 48 h
# SR = assay: Antiproliferative activity against human SR cells assessed as growth inhibition after 48 hrs by sulforhodamine B assay; type: functional
# RPMI-8226 = assay: Antiproliferative activity against human RPMI8226 cells assessed as growth inhibition after 48 hrs by sulforhodamine B assay; type: functional; settings: RPMI-8226, 48 h
# CCRF-CEM = assay: Antiproliferative activity against human CCRF-CEM cells assessed as growth inhibition after 48 hrs by sulforhodamine B assay; type: functional
# Hs-578T = assay: Antiproliferative activity against human Hs578T cells assessed as growth inhibition after 48 hrs by sulforhodamine B assay; type: functional
# T47D = assay: Antiproliferative activity against human T47D cells assessed as growth inhibition after 48 hrs by sulforhodamine B assay; type: functional
# [2] = Haemolytic activity in human erythrocytes assessed as induction of hemolysis at 10 mM after 30 mins relative to H202; type: cell-based, Erythrocyte; settings: read-out: Activity
# [3] = (§1) Haemolytic activity in human erythrocytes assessed as induction of hemolysis at 2.5 mM after 30 mins relative to H202; type: cell-based, Erythrocyte; settings: erythrocytes, read-out: Activity
# Erythrocyte [4] = assay: Haemolytic activity in human erythrocytes assessed as induction of hemolysis at 1.25 mM after 30 mins relative to H202; type: cell-based; settings: erythrocyte, 0.5 h, 1250 µM
# [5] = Antioxidant activity assessed as hydroxyl radical scavenging activity after 1 hr by salicylic acid-based Fenton reaction assay; type: functional
# [6] = Pro-oxidant activity assessed as increase in bleomycin-Fe2+ induced calf thymus DNA damage at 2 mM after 1 hr by thiobarbituric acid based absorbance analysis
# HCT-116 [7] = assay: Induction of apoptosis in human HCT116 cells assessed as increase in caspase 3 mRNA expression at 100 nM after 6 hrs hrs by SYBR green dye-based qRT-PCR analysis relative to control; type: functional
# HCT-116 [8] = assay: Induction of apoptosis in human HCT116 cells assessed as increase in p53 mRNA expression at 100 nM after 6 hrs hrs by SYBR green dye-based qRT-PCR analysis relative to control; type: functional
# HCT-116 [9] = assay: Reduction in CDK1 mRNA expression in human HCT116 cells at 100 nM after 6 hrs hrs by SYBR green dye-based qRT-PCR analysis relative to control; type: functional; settings: HCT-116, 6 h
# HOP-92 = assay: Antiproliferative activity against human HOP92 cells assessed as growth inhibition after 48 hrs by sulforhodamine B assay; type: functional; settings: HOP-92, 48 h
# Erythrocyte [10] = assay: as §1; type: cell-based; settings: erythrocyte, 0.5 h, 2500 µM
SMILES,pIC50 (WI-38),GI50 (MDA-MB-231) [nM],GI50 (OVCAR-3) [nM],GI50 (MCF7) [nM],inhibition of growth at 10 µM [1] [%],GI50 (DU-145) [nM],GI50 (SN12C) [nM],GI50 (RXF 393) [nM],GI50 (CAKI-1) [nM],GI50 (SK-OV-3) [nM],GI50 (OVCAR-5) [nM],GI50 (UACC-62) [nM],GI50 (UACC-257) [nM],GI50 (SK-MEL-2) [nM],GI50 (M14) [nM],GI50 (Malme-3M) [nM],GI50 (LOX IMVI) [nM],GI50 (SNB-75) [nM],GI50 (SNB-19) [nM],GI50 (SF-539) [nM],also measured
N=C(N)c1ccc(-c2ccc(-c3cc(Cl)cc(Cl)c3)o2)o1,4.80,1850,1700,1350,-57.8,1780,1970,1790,1700,1800,1810,1940,2050,2020,1860,1840,1680,1410,1990,1720,"GI50 (SF-268): 1770 nM; GI50 (NCI-H460): 1900 nM; GI50 (NCI-H23): 1670 nM; GI50 (HOP-62): 1890 nM; GI50 (SR): 630 nM; GI50 (RPMI-8226): 2130 nM; GI50 (CCRF-CEM): 1870 nM; GI50 (Hs-578T): 2220 nM; GI50 (T47D): 1720 nM; hemolysis at 0.5 h, 10000 µM [2]: 89.3%; hemolysis at 0.5 h, 2500 µM [3]: 11.1%; Activity (Erythrocyte [4]): Non-Toxic; Activity [5]: Active; Activity [6]: Active; fold change (FC) (HCT-116 [7]): 2.81; fold change (FC) (HCT-116 [8]): 1.99; inhibition at 0.1 µM (HCT-116 [9]): 46%"
N=C(N)c1ccc(-c2ccc(-c3cncc4ccccc34)s2)s1,< 4.00,1350,1650,280,-59.2,1550,1800,1600,1600,1580,1710,2310,2470,2000,1620,1610,1110,1930,2170,1730,"GI50 (SF-268): 1630 nM; GI50 (NCI-H460): 880 nM; GI50 (NCI-H23): 1760 nM; GI50 (HOP-92): 1370 nM; GI50 (HOP-62): 1700 nM; GI50 (SR): 270 nM; GI50 (RPMI-8226): 1780 nM; GI50 (CCRF-CEM): 360 nM; GI50 (Hs-578T): 2220 nM; GI50 (T47D): 1520 nM; hemolysis at 0.5 h, 10000 µM [2]: 12.3%; Activity (Erythrocyte [10]): Non-Toxic; Activity (Erythrocyte [4]): Non-Toxic; Activity [5]: Active; Activity [6]: Active; fold change (FC) (HCT-116 [7]): 3.03; fold change (FC) (HCT-116 [8]): 4.67; inhibition at 0.1 µM (HCT-116 [9]): 84%"
COc1ccc2cc(-c3ccc(-c4ccc(C(=N)N)s4)s3)ccc2c1,4.09,2460,2420,1910,95.3,1700,2120,7220,8290,17900,2110,2010,19600,2660,4000,3320,1950,10400,2130,3910,"GI50 (SF-268): 2100 nM; GI50 (NCI-H460): 1940 nM; GI50 (NCI-H23): 3220 nM; GI50 (HOP-62): 1780 nM; GI50 (SR): 850 nM; GI50 (RPMI-8226): 2160 nM; GI50 (CCRF-CEM): 1510 nM; GI50 (Hs-578T): 16600 nM; GI50 (T47D): 1790 nM; hemolysis at 0.5 h, 10000 µM [2]: 18.7%; Activity (Erythrocyte [10]): Non-Toxic; Activity (Erythrocyte [4]): Non-Toxic; Activity [5]: Active; Activity [6]: Active; fold change (FC) (HCT-116 [7]): 2.44; fold change (FC) (HCT-116 [8]): 1.03"
